# Patent US11453660B2, “Androgen receptor and glucocorticoid receptor modulators” (ONCOSTELLAE, S.L., priority 2017, dated 2022)
# Target: T1, AR-Receptor (Homo sapiens, UniProt P10275)
# T1 sequence (P10275 1-920 Q868H): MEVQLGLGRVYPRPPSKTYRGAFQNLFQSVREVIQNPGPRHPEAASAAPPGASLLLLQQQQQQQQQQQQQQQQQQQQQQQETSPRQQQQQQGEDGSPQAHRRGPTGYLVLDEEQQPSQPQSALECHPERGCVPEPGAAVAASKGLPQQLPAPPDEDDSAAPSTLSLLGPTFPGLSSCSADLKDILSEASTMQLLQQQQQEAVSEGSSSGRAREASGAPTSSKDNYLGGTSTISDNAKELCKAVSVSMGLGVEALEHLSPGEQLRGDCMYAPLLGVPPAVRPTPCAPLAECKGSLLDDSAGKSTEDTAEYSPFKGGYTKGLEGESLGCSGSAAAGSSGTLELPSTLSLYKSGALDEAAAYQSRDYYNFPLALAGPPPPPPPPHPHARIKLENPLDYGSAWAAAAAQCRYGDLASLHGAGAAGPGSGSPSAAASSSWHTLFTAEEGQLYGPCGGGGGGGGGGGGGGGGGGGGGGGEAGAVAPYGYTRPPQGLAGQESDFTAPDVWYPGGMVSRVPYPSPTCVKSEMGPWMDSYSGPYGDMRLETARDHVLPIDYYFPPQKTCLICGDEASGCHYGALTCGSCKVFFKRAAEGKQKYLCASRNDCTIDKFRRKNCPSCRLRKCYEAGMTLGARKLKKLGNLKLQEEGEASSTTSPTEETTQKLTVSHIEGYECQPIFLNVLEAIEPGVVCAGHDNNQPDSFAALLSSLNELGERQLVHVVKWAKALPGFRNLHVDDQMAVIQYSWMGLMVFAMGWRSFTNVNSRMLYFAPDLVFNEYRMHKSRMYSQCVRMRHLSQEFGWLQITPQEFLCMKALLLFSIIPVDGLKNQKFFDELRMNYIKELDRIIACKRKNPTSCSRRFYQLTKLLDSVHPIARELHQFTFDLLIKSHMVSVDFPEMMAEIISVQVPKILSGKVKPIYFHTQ
# Test: Functional Assay AR-Receptor (MDA-MB-453 cells, luciferase)
# Format: cell-based
# Details: antagonist effect in the presence of DHT 1 nM, 24 h, luciferase luminescence, read-out: AR antag KB
# Procedure, shortened: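 MDA-MB-453 cells, 8000/well, were switched to medium with 0.1% FBS and exposed to compounds for 24 h at 37 °C. Antagonist mode used 1 nM DHT. After lysis and a freeze-thaw cycle, luciferase luminescence was read.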
row,Compound,Kb
1,"CC(=O)C1=C(C)NC(C)=C(C(=O)OC2CCCCC2)C1c1csc2ncccc12 (stereo not shown) [Example C36, Cyclohexyl 5-acetyl-2,6-dimethyl-4-(thieno[2,3-b]pyridin-3-yl)-1,4-dihydropyridine-3-carboxylate]",≥ 1 µM
2,"CC(=O)C1=C(C)NC(C)=C(C(=O)OCc2ccccc2)C1c1csc2ncccc12 (stereo not shown) [Example C39, Benzyl 5-acetyl-2,6-dimethyl-4-(thieno[2,3-b]pyridin-3-yl)-1,4-dihydropyridine-3-carboxylate]",≥ 1 µM
3,"CC(=O)C1=C(C)NC(C)=C(C(=O)OCc2ccccc2)C1c1csc2ccc(F)cc12 (stereo not shown) [Example C41, Benzyl 5-acetyl-4-(5-fluorobenzo[b]thiophen-3-yl)-2,6-dimethyl-1,4-dihydropyridine-3-carboxylate]",0.1 to 1 µM
4,"CC(=O)C1=C(C)NC(C)=C(C(=O)OCc2ccccc2)C1c1csc2ccc(Cl)cc12 (stereo not shown) [Example C42, Benzyl 5-acetyl-4-(5-chlorobenzo[b]thiophen-3-yl)-2,6-dimethyl-1,4-dihydropyridine-3-carboxylate]",< 0.1 µM
5,"CC(=O)C1=C(C)NC(C)=C(C(=O)OCC2CCOCC2)C1c1csc2ccc(Cl)cc12 (stereo not shown) [Example C43, (Tetrahydro-2H-pyran-4-yl)methyl 5-acetyl-4-(5-chlorobenzo[b]thiophen-3-yl)-2,6-dimethyl-1,4-dihydropyridine-3-carboxylate]",< 0.1 µM
6,"CC(=O)C1=C(C)NC(C)=C(C(=O)OCC2CCOCC2)C1c1csc2ccc(F)cc12 (stereo not shown) [Example C44, (Tetrahydro-2H-pyran-4-yl)methyl 5-acetyl-4-(5-fluorobenzo[b]thiophen-3-yl)-2,6-dimethyl-1,4-dihydropyridine-3-carboxylate]",0.1 to 1 µM
7,"CC(=O)C1=C(C)NC(C)=C(C(=O)OCc2ccncc2)C1c1csc2ccc(F)cc12 (stereo not shown) [Example C46, Pyridin-4-ylmethyl 5-acetyl-4-(5-fluorobenzo[b]thiophen-3-yl)-2,6-dimethyl-1,4-dihydropyridine-3-carboxylate]",0.1 to 1 µM
8,"CC(=O)C1=C(C)NC(C)=C(C(=O)OCc2cccnc2)C1c1csc2ccccc12 (stereo not shown) [Example C48, Pyridin-3-ylmethyl 5-acetyl-4-(benzo[b]thiophen-3-yl)-2,6-dimethyl-1,4-dihydropyridine-3-carboxylate]",0.1 to 1 µM
9,"CC(=O)C1=C(C)NC(C)=C(C(=O)OCc2cccnc2)C1c1csc2c(Br)cccc12 (stereo not shown) [Example C58, Pyridin-3-ylmethyl 5-acetyl-4-(7-bromobenzo[b]thiophen-3-yl)-2,6-dimethyl-1,4-dihydropyridine-3-carboxylate]",0.1 to 1 µM
10,"CC(=O)C1=C(C)NC(C)=C(C(=O)OCc2ccc(Br)cc2)C1c1csc2ncccc12 (stereo not shown) [Example C65, 4-bromobenzyl 5-acetyl-2,6-dimethyl-4-(thieno[2,3-b]pyridin-3-yl)-1,4-dihydropyridine-3-carboxylate]",0.1 to 1 µM
11,"CC(=O)C1=C(C)NC(C)=C(C(=O)OCc2cccc(Br)c2)C1c1csc2ncccc12 (stereo not shown) [Example C66, 3-bromobenzyl 5-acetyl-2,6-dimethyl-4-(thieno[2,3-b]pyridin-3-yl)-1,4-dihydropyridine-3-carboxylate]",< 0.1 µM
12,"CC(=O)C1=C(C)NC(C)=C(C(=O)OCc2ccccc2Br)C1c1csc2ncccc12 (stereo not shown) [Example C67, 2-bromobenzyl 5-acetyl-2,6-dimethyl-4-(thieno[2,3-b]pyridin-3-yl)-1,4-dihydropyridine-3-carboxylate]",< 0.1 µM
13,"CC(=O)C1=C(C)NC(C)=C(C(=O)OC(C)(C)c2ccccc2)C1c1csc2ncccc12 (stereo not shown) [Example C71, 2-phenylpropan-2-yl 5-acetyl-2,6-dimethyl-4-(thieno[2,3-b]pyridin-3-yl)-1,4-dihydropyridine-3-carboxylate]",≥ 1 µM
14,"CC(=O)C1=C(C)NC(C)=C(C(=O)OCc2cccc(C#N)c2)C1c1csc2ncccc12 (stereo not shown) [Example C72, 3-Cyanobenzyl 5-acetyl-2,6-dimethyl-4-(thieno[2,3-b]pyridin-3-yl)-1,4-dihydropyridine-3-carboxylate]",≥ 1 µM
15,"CC(=O)C1=C(C)NC(C)=C(C(=O)OCc2ccc(C#N)cc2)C1c1csc2ncccc12 (stereo not shown) [Example C73, 4-cyanobenzyl 5-acetyl-2,6-dimethyl-4-(thieno[2,3-b]pyridin-3-yl)-1,4-dihydropyridine-3-carboxylate]",≥ 1 µM
16,"COC(=O)C1=C(C=O)NC(C2CC2)=C(C(=O)OC)C1c1csc2c(C#N)cccc12 (stereo not shown) [Example C117, Dimethyl 4-(7-cyanobenzo[b]thiophen-3-yl)-2-cyclopropyl-6-formyl-1,4-dihydropyridine-3,5-dicarboxylate]",0.1 to 1 µM
17,"COC(=O)C1=C(CO)NC(C2CC2)=C(C(=O)OC)C1c1csc2c(C#N)cccc12 (stereo not shown) [Example C118, Dimethyl 4-(7-cyanobenzo[b]thiophen-3-yl)-2-cyclopropyl-6-(hydroxymethyl)-1,4-dihydropyridine-3,5-dicarboxylate]",0.1 to 1 µM
18,"COC(=O)C1=C(C)NC(C=O)=C(C(=O)OC)C1c1csc2c(C#N)cccc12 (stereo not shown) [Example C119, Dimethyl 4-(7-cyanobenzo[b]thiophen-3-yl)-2-formyl-6-methyl-1,4-dihydropyridine-3,5-dicarboxylate]",0.1 to 1 µM

# Continued, values first:
row,Kb,Compound
1,0.1 to 1 µM,"CC1=C(C#N)C(c2csc3c(C#N)cccc23)C(C(=O)OCC2CC2)=C(N)N1 (stereo not shown) [Example D24, cyclopropylmethyl 2-amino-5-cyano-4-(7-cyanobenzo[b]thiophen-3-yl)-6-methyl-1,4-dihydropyridine-3-carboxylate]"
2,0.1 to 1 µM,"COC(=O)C1=C(C)NC(N)=C(C(=O)OC2CCCC2)C1c1csc2c(C#N)cccc12 (stereo not shown) [Example D27, 3-Cyclopentyl 5-methyl 2-amino-4-(7-cyanobenzo[b]thiophen-3-yl)-6-methyl-1,4-dihydropyridine-3,5-dicarboxylate]"
3,0.1 to 1 µM,"CC(=O)C1=C(C)NC(N)=C(C(=O)OCC2CCCCC2)C1c1csc2c(C#N)cccc12 (stereo not shown) [Example D30, Cyclohexylmethyl 5-acetyl-2-amino-4-(7-cyanobenzo[b]thiophen-3-yl)-6-methyl-1,4-dihydropyridine-3-carboxylate]"
4,0.1 to 1 µM,"CC1=C(C(=O)C2CC2)C(c2csc3c(C#N)cccc23)C(C(=O)OCC2CC2)=C(N)N1 (stereo not shown) [Example D31, Cyclopropylmethyl 2-amino-4-(7-cyanobenzo[b]thiophen-3-yl)-5-(cyclopropanecarbonyl)-6-methyl-1,4-dihydropyridine-3-carboxylate]"
5,0.1 to 1 µM,"CC(=O)C1=C(C)NC(N)=C(C(=O)OCc2cccc(F)c2)C1c1csc2c(C#N)cccc12 (stereo not shown) [Example D32, 3-Fluorobenzyl 5-acetyl-2-amino-4-(7-cyanobenzo[b]thiophen-3-yl)-6-methyl-1,4-dihydropyridine-3-carboxylate]"
6,0.1 to 1 µM,"CC1=C(C(=O)OC2CC2)C(c2csc3c(C#N)cccc23)C(C(=O)OCC2CC2)=C(N)N1 (stereo not shown) [Example D37, 5-Cyclopropyl 3-(cyclopropylmethyl) 2-amino-4-(7-cyanobenzo[b]thiophen-3-yl)-6-methyl-1,4-dihydropyridine-3,5-dicarboxylate]"
7,0.1 to 1 µM,"COC(=O)C1=C(C)NC(N)=C(C(=O)OCC2CC2)C1c1csc2c(C#N)cc(F)cc12 (stereo not shown) [Example D39, 3-(Cyclopropylmethyl) 5-methyl 2-amino-4-(7-cyano-5-fluorobenzo[b]thiophen-3-yl)-6-methyl-1,4-dihydropyridine-3,5-dicarboxylate]"
